Results on 65 compounds are retold here after a melting point compilation (Tetko et al.; mined from patent text by program, amines drawn as free bases though some values may be those of a salt).

In the case of `CP(C)(=O)CN1CCC(c2nn(-c3ccc(C(F)(F)F)cc3)c3ccccc23)CC1`, the melting point is 158 to 160 °C.

Compound `C[C@]1(Cn2cc([N+](=O)[O-])nc2Cl)CO1` gave a melting point of 65.5 to 67 °C.

On to `O=[N+]([O-])c1cnn2c1-c1ccccc1NC2c1ccccc1` (stereo not given), for which the melting point was 157 to 158 °C.

With `COc1cccc2c1nc(C1CC1)n2CC=C(C)C`, the melting point is 41 to 42 °C.

The compound `CC(=O)c1cnc(Br)c(C)c1` yielded a melting point of 114 to 115 °C.

Take `CCOC(=O)[C@H](CSC[C@H](Cc1ccccc1)NC(=O)OCc1ccccc1)N[C@@H](C)C(=O)O`: the melting point fell in the range of 124 to 127 °C.

As for `CCOC(=O)CC1CCc2cc3ccccc3n2C1` (stereo not given), the melting point is 66 to 68 °C.

Turning to `Cc1cccc(-n2nc(Sc3ccc(Cl)cc3)c(C)c(C#N)c2=O)c1`, the melting point was in the range of 163 to 165 °C.

In turn, `Cc1ccc(-c2nc3sc4ccccc4n3c2CC(=O)N(C)C)s1` yielded a melting point of 216 to 218 °C.

In turn, `C=CC1CC2=C(CC=C(OC)C2)C2CCC3(C)C(=CCC3O)C12` (stereo not given) registered a melting point of 129 to 136 °C.

`OC(C(=Cn1cncn1)c1ccc(Cl)cc1)c1ccccc1C(F)(F)F` (stereo not given) came in with a melting point of 161 °C.

Take `CC(=O)OC1CC(n2cc(C=CBr)c(=O)[nH]c2=O)OC1C(O)F` (stereo not given): the melting point amounted to 81 °C.

`O=C1C=C(Nc2c(Br)cccc2Br)CCN1` displayed a melting point of 240 to 243 °C.

Turning to `CCCc1c(C(=O)O)c(=O)cc(-c2ccc(Cl)cc2)n1C`, the melting point was 184 to 187 °C.

As to `S=c1nc(-c2ccc(Br)cc2)[nH]n1Cc1ccccc1`, the melting point was in the range of 250 to 251 °C.

For the compound `COC(=O)C(C)(C)CCCOc1cc(C)c(OCc2ccccc2)cc1C`, the melting point lay within 75.5 to 76.5 °C.

As to `COc1cc2nc(N3CCc4c(CO)cccc4C3)[nH]c(=O)c2cc1OC`, the melting point lay within 200 to 206 °C.

`COc1cc(C)cc(OC)c1N(CC1CCCCC1)C(=O)CNC(=O)c1cc2ccccc2n1CCC(=O)NC1C2CC3CC(C2)CC1C3` (stereo not given) showed a melting point of 96 °C.

In turn, `O=C(CBr)Nc1cccc(O)c1` returned a melting point of 167 to 170 °C.

On to `COc1cc2c(cc1F)C(CCCN1CCN(C)CC1)(c1ccccc1F)C(=O)N2S(=O)(=O)c1ccc(OC(C)C)cc1` (stereo not given), for which the melting point worked out at 72 °C.

For the compound `CSc1ccc(-c2ccc(C(=O)Nc3ccc4cc(CN5CCCC5)cnc4c3C)cc2)cc1`, the melting point was in the range of 206 to 208 °C.

Take `CC1CC(N)=NN1c1ccccc1` (stereo not given): the melting point was in the range of 104 to 106 °C.

On to `CC(C)(C)C(=O)Nc1ccccn1`, for which the melting point fell in the range of 74 to 76 °C.

`CC(C)NC(=O)C(C#N)=Cc1cc(O)c(O)c([N+](=O)[O-])c1`: the melting point was 243 to 245 °C.

For the compound `CCCOC(=O)Cc1cc(O)c(C)cc1O`, the melting point came out at 101 °C.

The compound `CCOC(=O)c1c(S(=O)c2ccccc2)n(C2CC2)c2c(F)c(F)c(F)cc2c1=O` (stereo not given) registered a melting point of 190 to 191 °C.

Consider `CCCCCCC(=O)c1ccc(O)c(Cl)c1Cl`, for which the melting point is 82 to 84 °C.

In the case of `O=C(O)c1cccc(Oc2cccc(C(F)(F)F)c2)n1`, the melting point was in the range of 47 to 49 °C.

On to `OC1c2cc(OCc3ccc4ccccc4n3)ccc2OCC1Cc1c[nH]c2ccccc12` (stereo not given), for which the melting point came out at 60 °C.

Turning to `CCc1cc(Cl)cc2c1OC(C(F)(F)F)C(C(=O)O)=C2` (stereo not given), the melting point was in the range of 197 to 199 °C.

For `O=C1c2c(O)cccc2C(Sc2ccccc2)c2cccc(O)c21`, the melting point lay in the range of 156 to 157 °C.

As for `CC(C)(CS(C)(=O)=O)NC(=O)c1c(I)cccc1C(=O)Nc1ccc(S(F)(F)(F)(F)F)cc1Cl`, the melting point was in the range of 196 to 198 °C.

`NCC(O)COc1cc([N+](=O)[O-])ccc1N` (stereo not given) yielded a melting point of 141 °C.

Regarding `CC(=O)NC[C@H]1CN(c2ccc(C(=O)c3cnc4nc(C)cc(C)n34)cc2)C(=O)O1`, the melting point lay within 253 to 254 °C.

Compound `COc1ccc(C2=NN(c3ccccc3)C(c3ccc(N)cc3)C2)cc1` (stereo not given) had a melting point of 164 to 166 °C.

Compound `CCOCn1cc(C(C)C)c(=O)[nH]c1=O` displayed a melting point of 78.4 °C.

`COc1ccc(-c2cnc(N)c(Sc3ccc(C)cc3)n2)cc1` came in with a melting point of 107 to 110 °C.

As for `Cc1c(C(=O)O)cnn1-c1nc(-c2cc(C(F)(F)F)cc(C(F)(F)F)c2)cs1`, the melting point turned out to be 261 °C.

`Cc1ccc(S(=O)(=O)NC(=N)CCN2CCOC2=O)cc1` registered a melting point of 129 to 134 °C.

`CCCCCCN1CCN(Cc2ccc(NC(=S)Nc3ccccc3N)cc2)C(=O)C1=O` gave a melting point of 160 °C.

In turn, `O=c1[nH]c2ccc(OCCCCN3CCC(c4cccc(Cl)c4Cl)CC3)cc2[nH]1` registered a melting point of 180 to 182 °C.

Compound `Cc1cc(C#N)cc(C)c1Oc1nc(Nc2ccc(C#N)cc2)nc(C)c1Br` yielded a melting point of 260 to 262 °C.

The compound `COc1ccc(C(=O)Oc2ccc(O)cc2)cc1` had a melting point of 162 to 165 °C.

For `CCOC(=O)c1nc(NC)sc1C(=O)C(C)Br` (stereo not given), the melting point was in the range of 104 to 106 °C.

As to `CNC(=O)Nc1snc(S(C)(=O)=O)c1C(N)=O`, the melting point fell in the range of 227 to 228 °C.

For `CCOC(=O)c1c(-c2ccc(C(C)(C)C)cc2)n(C)n(-c2ccc(C#N)cc2)c1=O`, the melting point lay in the range of 202 to 204 °C.

Consider `CN(C)C(=O)N(C)Cc1ccc(CCn2cnc3cc(-c4ccc(Cl)cc4)sc3c2=O)cc1`, for which the melting point was in the range of 160 to 165 °C.

Consider `Cc1cc(SC2CC(=O)N(C)C2=O)cc(C(C)(C)C)c1N` (stereo not given), for which the melting point was 92 to 94 °C.

Take `O=C(NCCO)c1cc(F)cc(-c2ccc(F)c3cc(Cc4cccc(C(F)(F)F)c4)sc23)c1`: the melting point is 107 to 108 °C.

Turning to `N#Cc1c(Cl)c([N+](=O)[O-])cc2[nH]c(=O)c(=O)[nH]c12`, the melting point is 327 to 331 °C.

On to `O=C(CBr)N[C@H](Cc1ccc(C(F)(F)F)cc1)[C@@H](O)c1ccc(F)cc1` (racemic), for which the melting point was 151 to 152 °C.

`CCCc1cc(C(O)=S)cc(N)c1Cc1ccccc1` gave a melting point of 151 to 152 °C.

In the case of `Cc1cccc(NC(=O)NCC(=O)N(CC(=O)NC(C)(C)C)c2ccccc2)c1`, the melting point amounted to 214 °C.

As for `C=CC(=O)Nc1ccc2ncnc(Nc3cccc(C)c3)c2c1`, the melting point lay in the range of 247 to 248 °C.

Take `CCOC(=O)NN=Cc1nc(C(C)(C)C)[nH]c1C`: the melting point lay in the range of 226 to 228 °C.

`CC(C)c1ccc(C(=O)C(c2ccccc2)C2CCCCC2)c(C(C)C)c1OS(N)(=O)=O` (stereo not given): the melting point fell in the range of 127 to 137 °C.

Compound `O=C(O)Cc1cccc2c(C3CCCCC3)nccc12` returned a melting point of 178 to 179 °C.

In turn, `O=CN(CCl)c1ccccc1` gave a melting point of 67 °C.

On to `COc1cc(OC)nc(Sc2cnn(C)c2NS(=O)(=O)CC#N)n1`, for which the melting point is 147 to 148 °C.

In the case of `Cc1nnc(S)n1-c1ccccc1F`, the melting point was 119 to 120 °C.

Take `CC(COC1CCCCO1)C1CCC2C3CC=C4CC(O)CC(O)C4(C)C3CCC12C` (stereo not given): the melting point was in the range of 138 to 141 °C.

`Nc1ncnc2c1c(-c1ccc(Oc3ccccc3O)cc1)cn2C1CCCC1` displayed a melting point of 107 to 109 °C.

In the case of `NC(=O)NC(=O)C(Cl)(Cl)CC1(c2cc(Cl)cc(Cl)c2)CO1` (stereo not given), the melting point was in the range of 186 to 189 °C.

`O=C(c1ccc2[nH]c3ccccc3c2c1)N1CCCCC1` displayed a melting point of 221 to 222 °C.

In the case of `Cc1cccnc1-c1cncc(OC2SCC(O)C(O)C2O)c1` (stereo not given), the melting point was in the range of 162 to 175 °C.
